According to patent publication US20250235501A1, “Methods and Compositions for Treating or Preventing Neurological Injury or Neurological Disorders” (University of Connecticut, priority 2024, published 2025):

Experiments:
MCAO mice = assay: Middle cerebral artery occlusion (MCAO) ischemic stroke model; type: in vivo, mouse
[1] = system: ERK and CREB activities (pERK1/2, pCREB); assay: ERK and CREB activities in brains of mice subjected to MCAO (WB); type: in vivo, mouse; conditions: WT mice; peptide ip 15 min before MCAO or sham
Procedure: FIGS. 7I-7K show the effects of TAT-EE3 and Trpm2 deletion on ERK and CREB activities in mice subjected to MCAO. […] TAT-EE3 or TAT-SC was ip administrated to WT mice 15 min before MCAO or sham surgeries. FIGS. 7J and 7K show the quantification of pERK1/2 and pCREB expressed in the brains after MCAO or sham procedure (***, p<0.001; ANOVA, Bonferroni's test; mean±SEM, n=4/group).
Eight-to nine-week-old male mice (˜25 g) were subjected to right middle cerebral artery occlusion (MCAO) for 120 min followed by 24 hours of reperfusion. The genotype information was blinded to the surgeon who conduct the surgeries. […] Mouse body temperature was monitored by a rectal temperature probe and maintained at ˜ 37° C. with an automatic temperature-regulating heating pad connected to animal temperature controller (TCA T-2DF, Physitemp). Cerebral blood flow was monitored after occlusion as well as after reperfusion. […] Successful occlusion was confirmed by 85% reduction of cerebral blood flow monitored by Laser Doppler Flowmetry (LDF) with laser Doppler blood FlowMeter (Moor-VMS-LDF1, Moor Instrument, Dever, UK). […]
NP-40/Triton lysis buffer ([…], 1% Triton™ X-100, 150 mM NaCl, 1 mM EDTA, 50 mM Tris, pH=8.0) containing proteinase inhibitors and phosphatase inhibitors was used to lyse both cultured cells and frozen brain tissue. […] Protein concentration was measured using Pierce™ Rapid Gold BCA Protein Assay Kit. […]

[2] = 100 nmol/kg ip 15 mins before MCAO, 24 hrs after MCAO, vs TAT-SC-treated mice
[3] = 1 h MCAO, administered every 12 h, day 1, day 3, and day 7
[4] = FIGS. 18C-18E, pre-MCAO administration i.p. 30 min before MCAO
[5] = post-MCAO treatment, injected right before reopening of the MCA, WT mice

Substance: TAT-EE3: membrane permeable disrupting peptide, sequence YGRKKRRQRRREEDTDSSEEMLALAEE (SEQ ID NO: 4)
- infarct volume (MCAO mice; [2]): significantly reduced
- neurological behavior scores (MCAO mice; [2]): improved
- ND scores, long-term MCAO (7 days) (MCAO mice; [3]): improved
- latency to fall time (rotarod test), long-term MCAO (MCAO mice; [3]): inhibited the reduction
- infarct volume (MCAO mice; [4]): reduced
- neurological deficit (ND) score (MCAO mice; [4]): improved
- ND score (MCAO mice; [5]): improved
- infarct volume (MCAO mice; [5]): reduced
- protective effects in nM2KO mice (MCAO mice; post-MCAO treatment, neuron-specific TRPM2 knockout mice): did not produce further protective effects
- pCREB level in MCAO brains vs sham control brains [1]: no reduction
- pERK1/2 level in MCAO brains vs sham control brains [1]: no reduction
